Test results from the OPERA property sets (Mansouri et al. 2018).

Structure (SMILES) | logP
Nc1ccc(C(=O)Oc2ccc(Cl)cc2Cl)c(O)c1 | 4.27
CNC(=O)c1ccccc1/N=N/N(C)C | 1.83
CN(C)N=Nc1ccc(NC(N)=O)cc1 | 1.25
Cc1cnc2cccc(C)n2c1=O | 1.26
COCC(O)Cn1cc([N+](=O)[O-])nc1C (configuration not stated) | -0.36
C#CC(C=C)(CC)OC(N)=O (configuration not stated) | 1.09
CC1CN(C)C(=Nc2ncc([N+](=O)[O-])s2)N1 (configuration not stated) | 1.95
COC(=O)C(C#N)=NNc1ccc(SC(F)(F)F)cc1 | 4.3
COc1cc(S(=O)(=O)CC(O)c2ccccc2)cc(OC)c1OC (configuration not stated) | 1.65
CCCCOn1c(=O)[nH]c(C)c(Br)c1=O | 1.24
COc1cc(Cc2cnc(N)nc2N)ccc1OCc1ccccc1 | 2.66
CN1C(=O)C(=Cc2ccc([N+](=O)[O-])o2)SC1=S | 1.06
Cc1nnc(N)o1 | -0.92
CC1(C)N=C(N)N=C(N)N1c1cccc(C#N)c1 | -0.24
OC(CN1CCCC1)c1ccccc1 (configuration not stated) | 1.38
O=C(CNC(=O)c1ccccc1)Oc1cccc(Cl)c1 | 3.21
Cc1cc2c(cc1Cc1cnc(N)nc1N)OCO2 | 1.89
CC(=O)N(C)SN(C)C(=O)Oc1cccc2c1OC(C)(C)C2 | 2.7
CC(C)Nc1ccccc1C(N)=O | 2.07
CCCCCCCCCCCCCC[n+]1ccc(C)cc1C.[I-] | 2.47
CCC(C)On1c(=O)[nH]c(C)c(Br)c1=O (configuration not stated) | 1.11
Cc1ccccc1C1=NCC(=O)Nc2ccc(Cl)cc21 | 3.12
CCC(C)N(C)/N=N/c1nc[nH]c1C(N)=O (configuration not stated) | 1.08

Structure (SMILES) | logP
CC1=Nc2cc(N)c(Cl)cc2S(=O)(=O)N1 | 0.63
CNc1ncnc2sccc12 | 1.43
CCCCCC[n+]1ccccc1C.[I-] | -1.71
COc1cc(C)nc2ccccc12 | 2.81
O=C1CCC(=O)N1c1ccccc1C(F)(F)F | 0.76
CCc1nnc(SC)n(N)c1=O | 0.46
CSCN1C(=O)CN=C(c2ccccc2)c2cc(Cl)ccc21 | 3.32
Cc1cc(=O)[nH]n1-c1ccncn1 | 1.4
COc1ccc(Cc2cnc(N)nc2N)cc1OCc1ccccc1 | 2.44
CCCCCCCC[n+]1ccc(C)cc1C.[I-] | -0.57
O=c1c2ccccc2ncn1O | -0.45
O=C1OC(Cc2ccccc2)c2ccccc21 (configuration not stated) | 3.12
CSc1ccccc1/N=N/N(C)C | 3.13
O=C(O)c1ccccc1Nc1cccc(O)c1 | 3.49
CC(=O)C(C#N)=NNc1ccc(Cl)c(Cl)c1 | 4.56
COc1cc(Cc2cnc(N)nc2N)cc(I)c1OC | 2.33
FC1C(Cl)C(Cl)C(Cl)C(Cl)C1Br (configuration not stated) | 3.28
[Br-].c1ccc(CC[n+]2ccccc2)cc1 | -2.35
Nc1nc(N)nc(-c2ccc(Cl)cc2Br)n1 | 2.09
CCC(=O)N(C)SN(C)C(=O)ON=C(C)SC | 1.6
O=C(NO)Nc1ccc(Cl)cc1 | 1.39
CC(=O)N(C)/N=N/c1ccc(F)cc1 | 2.77
NC(=O)COCc1ccco1 | -0.11

Structure (SMILES) | logP
N#CC(=Cc1ccccc1)C(=O)Nc1ccccc1 | 3.41
CCCOC(=O)NC | 0.95
CCCCCCCC[n+]1ccccc1.[I-] | -0.84
COC12C(COC(N)=O)C3=C(C(=O)C(C)=C(N)C3=O)N1CC1C2N1C(=O)Cc1ccccc1 (configuration not stated) | 1.15
O=NN(CCF)C(=O)NCCCl | 0.96
COc1cc(Cc2cnc(N)nc2N)c(Br)cc1Br | 3.17
CS(=O)(=O)NN=Cc1ccccc1 | 1.2
CC(C)N(N=O)C(=O)Nc1ccccc1 | 2.5
CCN1C(=N)SC(=Cc2ccc([N+](=O)[O-])o2)C1=O | 1.44
CCc1cc(=O)n2c(C)cccc2n1 | 1.59
O=C(O)COc1cccc(S(=O)(=O)C(F)(F)F)c1 | 2.19
CN1C(=O)OC(c2ccccc2)C1=O (configuration not stated) | 1.06
CN(C)c1ccc2c(c1)C(=O)OC2(C)C | 2.42
NNC(=O)NCc1ccccc1 | -0.22
CN(C)C(=O)CCc1ccco1 | 0.62
O=C(O)C1CCc2ccccc2O1 (configuration not stated) | 1.9
CSC1=NCCN1c1ncc([N+](=O)[O-])s1 | 1.78
NC1CC2CC1c1ccc(C(F)(F)F)cc12 (configuration not stated) | 2.91
N#Cc1cccc(N2C(=O)CCC2=O)c1 | 0.02
CN(N=Nc1ccc(C(N)=O)cc1)C(C)(C)C | 2.61
CCCCCCNP(=O)(OC)SC (configuration not stated) | 1.11
COc1cc(Cc2cnc(N)nc2N)cc2c1OCO2 | 1.38
COP(=O)(OC)Oc1ccccc1 | 1.22

Structure (SMILES) | logP
O=C(NCCO)c1cccnc1 | -0.11
CC1CN(N=O)C(C)CN1N=O (configuration not stated) | 0.15
CCCCCCN(SN(C)C(=O)ON=C(C)SC)C(=O)c1ccccc1 | 4.2
CCCCCCNC(=O)NN | 0.46
COc1cc(Cl)c(NC2=NCCN2)c(Cl)c1 | 1.6
CCC1(CC)OC(=O)c2ccccc21 | 2.69
O=C1O[C@@H](O)c2ccccc21 | 0.57
COC(=O)C(C#N)=NNc1cc(C(F)(F)F)cc(C(F)(F)F)c1 | 5.02
CNP(=O)(OC)Oc1ccc([N+](=O)[O-])cc1 (configuration not stated) | 1.27
CC(=O)Oc1cccc(C(F)(F)F)c1 | 2.63
CCOC(=O)c1[nH]cnc1N=NN(C)C | 0.44
CCOC(=O)C(C#N)=NNc1ccc([N+](=O)[O-])cc1[N+](=O)[O-] | 4.14
CNP(=O)(OC)Oc1ccc(Cl)cc1Cl (configuration not stated) | 2.41
Fc1cccc(Cl)c1N=C1NCCN1 | 1.45
O=C(Nc1n[nH]c(NC(=O)C(F)(F)F)n1)C(F)(F)F | 0.62
COc1cc(C)ccc1N=C1NCCN1 | 1.64
O=S(=O)(Nc1cccc(O)c1)C(F)(F)F | 2.51
COc1cc(OC)c(CC(C)N)c(OC)c1 (configuration not stated) | 1.57
CSC(C)=NOC(=O)N(C)SN(C)C(=O)c1ccccc1 | 2.2
CCCCNC(=O)NN | -0.6
O=C(CN1CCCCC1)Nc1cccc(Cl)c1 | 3.45
Cc1ccc(N2C(N)=NC(N)=NC2(C)C)cc1 | 0.85
CCC(CC)(OC)C(=O)NC(N)=O | 0.96

Structure (SMILES) | logP
CC(=O)Nc1cnc2ccccc2c1 | 1.92
CC1=C(C(=O)O)SCCO1 | 0.04
CSc1ccccc1C1=NCC(=O)Nc2ccc(Cl)cc21 | 2.99
CCNCNC(=O)c1ccccc1 | 0.56
CNC(=O)ON=CC(C)(C)[N+](=O)[O-] | 0.36
CC1CN(N=O)CC(C)N1N=O (configuration not stated) | 0.08
CCN(CC)/N=N/c1nc[nH]c1C(N)=O | 0.78
CC1(C)SC2C(NC(=O)C(O)c3ccccc3)C(=O)N2C1C(=O)O (configuration not stated) | 1.4
O=C(O)CCCCCn1nnc2ccccc21 | 0.86
CCCCCc1ccc(O)cc1 | 4.06
O=C(NCC(O)c1ccc([N+](=O)[O-])cc1)C(F)(F)F (configuration not stated) | 1.46
COc1cc(-n2[nH]c(C)cc2=O)nc(C)n1 | 0.72
ClC1C(Cl)C(Br)C(Cl)C(Br)C1Cl (configuration not stated) | 3.98
COc1ccccc1C(=O)NCCCN | 0.2
CNc1nnc(C(C)C)c(=O)n1N | 0.3
COc1cc(Cc2cnc(N)nc2N)cc(OC)c1C(=O)CS(C)(=O)=O | -0.31
O=C1CN=C(c2ccccc2)c2ccccc2N1 | 2.18
COCN1C(=O)CN=C(c2ccccc2)c2cc(N)ccc21 | 1.32
Nc1ccccc1OC1OC(CO)C(O)C(O)C1O (configuration not stated) | -1.23
CN(C)C(=O)OCc1ccccc1 | 2.16
